Results published in US5767149A, “α-glycosyl-L-ascorbic acid, and it's preparation and uses” (priority 1989, dated 1998).

Assays:
[1] = physchem; type: physicochemical; conditions: for Remaining ratio: 0 min, 70 uM; for remaining at 0.25 h, 70 µM / remaining at 0.5 h, 70 µM / remaining at 1 h, 70 µM / remaining at 21 h, 70 µM: water
Protocol: (c) 2-O-α-D-Glucosyl-L-ascorbic acid was compared respectively to the 6-O-α-D-glucosyl-L-ascorbic acid disclosed in Japanese Patent Publication No. 38,158/73, and L-ascorbic acid for their stability in aqueous solution. More particularly, each sample was adjusted to a concentration of 70 micromoles and to pH 7.0 or 2.0, placed in a cuvette, and measured for its absorbance at either 260 nm and pH 7.0 or at 245 nm and pH 2.0 while keeping the solution at 20° C. The remaining ratio (%) was calculated with the absorbance.

[2] = Solubility in solvents; type: physicochemical
[3] = Coloring reaction: direct reducing activity on 2,6-dichlorophenolindophenol
[4] = system: α-glucosidase; test: Hydrolysis by α-glucosidase; type: biochemical; conditions: forms L-ascorbic acid and D-glucose, molar ratio 1:1
Protocol: (§1) (a) Hydrolyzable by α-glucosidase or by treatment with 1N hydrochloric acid at 100° C. for 5 minutes to form L-ascorbic acid and D-glucose at a molar ratio of 1:1.

[5] = system: β-glucosidase; test: Hydrolysis by β-glucosidase; type: biochemical
Excerpt: (b) Unhydrolyzable by β-glucosidase.

[6] = Hydrolysis by 1N hydrochloric acid at 100° C.; type: physicochemical; conditions: 5 minutes
Protocol: as §1

[7] = system: cytochrome C; test: Reducing activity on cytochrome C; type: biochemical; conditions: for Reducing activity on cytochrome C: intact sample, 10 microliters of 10 mM, pH 7.8
[8] = system: human fibroblast cell; test: Collagenic activity in human fibroblast cell; type: cell-based; conditions: 0.25 mM, 24 hours
Protocol: (b) Collagenic activity 2-O-α-D-Glucosyl-L-ascorbic acid, 6-O-α-D-glucosyl-L-ascorbic acid and L-ascorbic acid were tested for their collagenic activity. A human fibroblast cell, cell density of 7×10^4 cells/plate, was cultured in Eagle's minimal essential medium supplemented with 10% FCS for 1 week, added with 4 μCi/ml ^3 H-proline, 20 μg/ml of β-aminopropionitrile and 0.25 mM of either sample, and cultured for an additional 24 hours. The resultant was then added with 10 w/v % trichloroacetic acid to recover the collagenous element in the culture, followed by lyophilization. The resultant specimen was dissolved, and the solution was adjusted to an appropriate pH, treated with a collagenase (Type III) at 37° C. for 90 minutes, and centrifuged. Collagenic activity was estimated by determining the radio activity in the supernatant.

[9] = system: dd mice; test: Acute toxicity, oral; type: in vivo, mouse
Excerpt: A high-purity α-D-glucosyl-L-ascorbic acid specimen, prepared by the method in Experiment 2(2), was orally administered to 7 week-old dd mice for acute toxicity test. As the result, no mouse died when administered with up to […] of the specimen, and higher dose was difficult.

SMILES	Remaining ratio ([1]; pH 2)	Remaining ratio ([1]; pH 7)	remaining at 0.25 h, 70 µM ([1]; pH 2)	remaining at 0.5 h, 70 µM ([1]; pH 2)	remaining at 1 h, 70 µM ([1]; pH 2)	remaining at 21 h, 70 µM ([1]; pH 2)	remaining at 0.25 h, 70 µM ([1]; pH 7)	remaining at 0.5 h, 70 µM ([1]; pH 7)	remaining at 1 h, 70 µM ([1]; pH 7)	remaining at 21 h, 70 µM ([1]; pH 7)	Reducing activity on cytochrome C [7]	Collagenic activity [8]	further results
O=C1O[C@H]([C@@H](O)CO)C(O)=C1O[C@H]1O[C@H](CO)[C@@H](O)[C@H](O)[C@H]1O [2-O-α-D-glucosyl-L-ascorbic acid]	100%	100%	100%	100%	100%	100%	100%	100%	100%	100%	no reducing activity	the same collagenic activity as that of L-ascorbic acid	Stability in aqueous solution [1]: extremely stable in aqueous solution; Solubility ([2]; 0.1N acetic acid): Readily soluble; Solubility ([2]; 0.1N sodium hydroxide): Readily soluble; Solubility ([2]; benzene): insoluble; Solubility ([2]; chloroform): insoluble; Solubility ([2]; ethanol): soluble; Solubility ([2]; ether): insoluble; Solubility ([2]; methanol): soluble; Solubility ([2]; water): Readily soluble; Direct reducing activity (2,6-dichlorophenolindophenol) [3]: no direct reducing activity, and not reducing and decoloring 2,6-dichlorophenolindophenol; Hydrolysis by α-glucosidase [4]: Hydrolyzable; Hydrolysis by β-glucosidase [5]: Unhydrolyzable; Hydrolysis by acid [6]: Hydrolyzable; Reducing activity on cytochrome C after hydrolysis ([7]; hydrolyzed by α-glucosidase specimen): exhibited a reducing activity; Highest dose administered without death ([9]; 7 week-old dd mice, higher dose was difficult): ≥ 5 g; Mortality ([9]; 7 week-old dd mice, up to 5 g): no mouse died; Toxicity ([9]; dd mice): extremely low in toxicity
O=C1O[C@H]([C@@H](O)CO[C@H]2O[C@H](CO)[C@@H](O)[C@H](O)[C@H]2O)C(O)=C1O [6-O-α-D-glucosyl-L-ascorbic acid]	100%	100%	99%	98%	91%	55%	58%	36%	17%	8%	unlike 6-O-α-D-glucosyl-L-ascorbic acid and L-ascorbic acid, 2-O-α-D-glucosyl-L-ascorbic acid exhibited no reducing activity	slightly inferior in collagenic activity to that of 2-O-α-D-glucosyl-L-ascorbic acid	
O=C1O[C@H]([C@@H](O)CO)C(O)=C1O [L-ascorbic acid]	100%	100%	99%	97%	87%	10%	47%	20%	8%	2%	unlike 6-O-α-D-glucosyl-L-ascorbic acid and L-ascorbic acid, 2-O-α-D-glucosyl-L-ascorbic acid exhibited no reducing activity		
